Reference: patent US20050266509A1, “Interaction of NMDA receptor with protein tyrosine phosphatase” (AGY Therapeutics, Inc., priority 2003, published 2005)
“Also recorded” adds a separate entry of the source.

Assays:
PTPMEG [1] = molecular target: T1, PTPMEG (Homo sapiens, UniProt P29074); test: Western blot of NR2B and Src phosphorylation in NR1/NR2B stable cell line transfected with active Src and PTPMEG; assay type: cell-based; settings: 48 h post transfection
T1 construct: expressed in transfected cells
T1 sequence (P29074 1-926): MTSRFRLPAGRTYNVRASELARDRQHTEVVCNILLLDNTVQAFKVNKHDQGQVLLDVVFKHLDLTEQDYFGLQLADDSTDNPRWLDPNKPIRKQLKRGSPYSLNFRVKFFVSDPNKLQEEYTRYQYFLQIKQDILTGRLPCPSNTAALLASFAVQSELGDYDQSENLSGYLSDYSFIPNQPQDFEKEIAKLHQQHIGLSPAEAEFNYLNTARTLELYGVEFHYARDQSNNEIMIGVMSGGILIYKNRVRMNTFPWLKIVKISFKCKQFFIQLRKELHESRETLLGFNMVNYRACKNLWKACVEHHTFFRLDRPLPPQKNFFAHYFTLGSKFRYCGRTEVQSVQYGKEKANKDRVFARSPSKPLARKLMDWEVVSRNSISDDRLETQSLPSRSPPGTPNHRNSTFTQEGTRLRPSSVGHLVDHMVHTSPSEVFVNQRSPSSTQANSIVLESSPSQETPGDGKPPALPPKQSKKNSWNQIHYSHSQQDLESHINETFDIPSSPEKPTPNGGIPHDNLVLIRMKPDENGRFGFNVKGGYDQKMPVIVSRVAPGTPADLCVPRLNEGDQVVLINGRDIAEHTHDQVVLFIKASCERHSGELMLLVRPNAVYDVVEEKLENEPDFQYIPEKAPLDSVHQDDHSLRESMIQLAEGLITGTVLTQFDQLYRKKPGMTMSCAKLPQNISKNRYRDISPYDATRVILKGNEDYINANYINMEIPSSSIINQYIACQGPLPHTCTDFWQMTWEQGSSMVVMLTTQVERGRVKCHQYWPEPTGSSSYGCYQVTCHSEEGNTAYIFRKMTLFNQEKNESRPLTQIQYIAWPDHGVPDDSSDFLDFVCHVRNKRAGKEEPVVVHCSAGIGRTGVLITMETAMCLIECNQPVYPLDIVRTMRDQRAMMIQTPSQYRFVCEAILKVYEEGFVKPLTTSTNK
Description: A stable cell line, expressing the NMDA receptor subunit NR1 together with NR2B was transiently transfected with constitutive active Src kinase and PTPMEG, wildtype and dominant negative CS mutant, respectively. Control experiments included dephostatin, a generic tyrosine phosphatase inhibitor. 48 h post transfection cells were lysed and subsequently analyzed by western blot. In presence of the active wildtype PTPMEG phosphatase, both the NR2B subunit as well as Src kinase were dephosphorylated, shown in FIG. 3. […] NR2B phosphorylation by Src kinase was detected by an NR2B phosphospecific antibody. Dephosphorylation of NR2B and Src kinase was reversed by addition of dephostatin, and unaffected in presence of the dominant negative form of PTPMEG (CS). (FIG. 5)

mice = test: Amphetamine-induced hyperactivity model (open field); settings: 5 mg/kg SC, 60 min recording period
PTPMEG [2] = molecular target: T2, PTPMEG (Homo sapiens, UniProt P29074); test: TR-FRET phosphatase activity assay, PTPMEG; assay type: biochemical
T2 construct: Asp-Ser-6xHis (N); made in house; host or cells: E. coli BL21(DE3)
T2 sequence (P29074 655-911 limits assumed): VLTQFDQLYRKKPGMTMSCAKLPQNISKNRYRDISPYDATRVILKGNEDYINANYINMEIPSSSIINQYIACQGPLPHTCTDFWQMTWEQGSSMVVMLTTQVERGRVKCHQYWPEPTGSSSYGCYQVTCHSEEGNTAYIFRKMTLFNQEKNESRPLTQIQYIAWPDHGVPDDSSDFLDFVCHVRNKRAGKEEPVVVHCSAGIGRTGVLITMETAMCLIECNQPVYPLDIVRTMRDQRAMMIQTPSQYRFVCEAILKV
Description: Expression and Purification of PTPMEG The DNA sequence encoding the C-terminal 326 residues of PTPMEG (phosphatase domain) was subcloned into the pET-17b vector (Novagen) between the Ndel and Xhol restriction sites. An N-terminal tag consisting of Asp-Ser-6×His was incorporated at the beginning of the protein sequence. Protein expression was performed in BL21(DE3) cells at 37° C. with a 4 hour 0.5 mM IPTG induction. The cells were harvested by centrifugation and stored at −80° C. until needed for protein purification. Protein purification consisted of cell lysis by sonication, immobilized metal affinity chromatography (IMAC) on a Ni^2+-NTA column (Qiagen), followed by hydrophobic interaction chromatography (HIC) on a phenyl sepharose column (Amersham Pharmacia Biotech) and/or ion exchange chromatography (IEC) on a Q sepharose column (Amersham Pharmacia Biotech). The purified 38.3 kDa protein was buffer exchanged into 50 mM HEPES, pH 7.5 and stored at −80° C.
Phosphatase Buffer: 50 mm HEPES, pH 8; 1 mM DDT; 2 mM EDTA; 0.01% Brij solution; 10 mM MgCl2. […]
The plates are then placed in the plate reader, an Analyst HT. […] Fluorescence resonance energy transfer (FRET) from Eu-Ab to APC will only occur when they are in close proximity. […]

CD45 = molecular target: T3, CD45 (Homo sapiens, UniProt P08575); test: FRET phosphatase assay, CD45; assay type: biochemical
T3 sequence (P08575 26-1306): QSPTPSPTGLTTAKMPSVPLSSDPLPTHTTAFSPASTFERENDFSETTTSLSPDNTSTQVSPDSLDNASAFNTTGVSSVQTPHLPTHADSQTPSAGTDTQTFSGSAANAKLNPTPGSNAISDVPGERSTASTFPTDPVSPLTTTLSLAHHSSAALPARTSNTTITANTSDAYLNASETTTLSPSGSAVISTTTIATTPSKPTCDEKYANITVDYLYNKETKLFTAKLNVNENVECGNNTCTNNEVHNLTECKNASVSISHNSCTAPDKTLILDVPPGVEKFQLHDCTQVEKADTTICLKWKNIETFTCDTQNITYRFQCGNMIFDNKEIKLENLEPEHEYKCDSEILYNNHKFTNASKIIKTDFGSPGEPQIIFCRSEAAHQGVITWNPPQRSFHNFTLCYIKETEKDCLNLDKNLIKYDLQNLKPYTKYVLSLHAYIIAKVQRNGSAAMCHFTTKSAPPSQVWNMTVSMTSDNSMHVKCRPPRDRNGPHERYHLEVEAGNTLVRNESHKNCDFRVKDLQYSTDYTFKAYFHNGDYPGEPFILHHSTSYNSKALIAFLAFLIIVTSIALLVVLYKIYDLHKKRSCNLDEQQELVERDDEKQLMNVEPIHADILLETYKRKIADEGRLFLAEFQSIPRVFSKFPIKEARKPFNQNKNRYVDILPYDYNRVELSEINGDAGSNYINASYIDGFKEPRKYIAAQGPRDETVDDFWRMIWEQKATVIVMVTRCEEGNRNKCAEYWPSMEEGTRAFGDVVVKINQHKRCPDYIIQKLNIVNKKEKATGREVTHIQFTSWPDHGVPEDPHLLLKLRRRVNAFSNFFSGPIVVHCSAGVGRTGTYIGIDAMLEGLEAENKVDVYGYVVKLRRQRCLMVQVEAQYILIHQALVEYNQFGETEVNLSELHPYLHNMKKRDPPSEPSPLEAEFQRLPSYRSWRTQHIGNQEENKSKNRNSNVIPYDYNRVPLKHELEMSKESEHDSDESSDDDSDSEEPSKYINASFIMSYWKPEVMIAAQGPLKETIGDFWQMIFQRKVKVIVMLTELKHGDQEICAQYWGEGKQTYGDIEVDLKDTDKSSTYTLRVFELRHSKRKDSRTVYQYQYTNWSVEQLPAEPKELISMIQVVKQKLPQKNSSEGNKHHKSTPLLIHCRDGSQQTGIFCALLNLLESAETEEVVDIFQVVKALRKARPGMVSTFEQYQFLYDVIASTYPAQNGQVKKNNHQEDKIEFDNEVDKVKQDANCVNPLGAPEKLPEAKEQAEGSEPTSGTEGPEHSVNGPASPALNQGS
Description: (§1) For the enzyme activity assay, 2.5 μl of compound, 12.5 μl of enzyme, and 10 μl of substrate (separated by air gaps) are added to columns 3 through 24 by the Biomek FX in a single dispense. After the dispense, the tips are washed with DMSO and water for re-use between each quadrant. Once the assay plates are set up, they are incubated at 27° C. for 45 minutes. Then 20 μl of detection buffer is added to stop the reaction and to allow the Europium antibody (Eu-Ab) and streptavidin-APC to bind to the substrate.
(§2) The plates are then placed in the plate reader, an Analyst HT. Excitation light at 360 nm is used to excite the Europium antibody with an emission at 620 nm. Fluorescence resonance energy transfer (FRET) from Eu-Ab to APC will only occur when they are in close proximity. Therefore, when an APC emission is observed at 665 nm the enzyme has been inhibited from removing the phosphate group from the substrate. The FRET assay is time-resolved (TR), where there is a delay between excitation light and collection of emission signals. This reduces the amount of stray light created by short-lived fluorescing molecules. The Analyst HT measures APC and Europium emission signals and calculates the ratio between the two intensities. Typical intensities for the Europium is ˜2000 and APC is ˜600.
(§3) The following compounds were tested by FRET against the listed phosphatases, and the IC50 were obtained. […]

PTPB = PTPB (Homo sapiens, UniProt P23467); test: FRET phosphatase assay, PTPB; assay type: biochemical
PTPB, sequence (P23467 1643-1997 limits assumed): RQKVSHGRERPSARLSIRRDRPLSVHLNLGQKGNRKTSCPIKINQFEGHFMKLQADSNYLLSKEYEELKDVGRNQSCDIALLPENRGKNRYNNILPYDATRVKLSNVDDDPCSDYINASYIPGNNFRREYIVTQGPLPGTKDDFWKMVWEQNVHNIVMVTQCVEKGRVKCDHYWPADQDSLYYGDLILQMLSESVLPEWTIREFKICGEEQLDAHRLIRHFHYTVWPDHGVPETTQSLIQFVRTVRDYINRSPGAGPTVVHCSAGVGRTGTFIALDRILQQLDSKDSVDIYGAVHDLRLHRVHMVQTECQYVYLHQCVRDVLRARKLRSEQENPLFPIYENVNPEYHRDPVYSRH
Description: as §1, §2, §3

T Cell = molecular target: T4, T Cell (Homo sapiens, UniProt P17706); test: FRET phosphatase assay, T Cell; assay type: biochemical
T4 sequence (P17706 1-415): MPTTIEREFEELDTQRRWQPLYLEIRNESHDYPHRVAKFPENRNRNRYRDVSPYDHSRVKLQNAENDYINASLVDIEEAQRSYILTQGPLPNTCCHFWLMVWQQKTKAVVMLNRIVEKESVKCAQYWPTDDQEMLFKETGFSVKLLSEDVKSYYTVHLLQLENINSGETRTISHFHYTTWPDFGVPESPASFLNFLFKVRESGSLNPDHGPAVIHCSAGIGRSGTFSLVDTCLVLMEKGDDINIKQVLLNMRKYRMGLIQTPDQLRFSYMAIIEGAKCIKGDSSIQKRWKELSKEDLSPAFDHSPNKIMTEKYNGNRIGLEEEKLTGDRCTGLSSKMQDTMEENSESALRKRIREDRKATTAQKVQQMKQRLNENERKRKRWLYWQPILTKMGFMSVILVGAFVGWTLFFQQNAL
Description: as §1, §2, §3

PTPMEG [3] = molecular target: T1, PTPMEG; test: Western blot of Src/fyn Y418 phosphorylation in NR1/NR2B stable cell line transfected with active Src or fyn and PTPMEG; assay type: cell-based; settings: 500 μM, 3 hours, 48 hrs post-transfection
Excerpt: PTPMEG Dephosphorylates Protein Kinases Src and fyn. A stable cell line expressing the NR1 and NR2B subunits of the NMDA receptor was transiently transfected with constitutive active Src Srcor constitutive active fyn (fyn Y530F, where the tyrosine at position 530 is substituted by a phenylalanine) and PTPMEG, from a full length PTPMEG (amino-terminal myc-tag, c-terminal HA tag) expression construct in the pRK5 vector, with a CMV-driven promoter.
48 hrs post-transfection the cells were stimulated with 500 μM sodium orthovanadate, a […] for 3 hours. Cells were lysed and analyzed by western blot using a Src/fyn specific phosphoantibody (from Biosource) that recognizes the residue Y418 critical for activity for both Src and fyn. In presence of PTPMEG (identified with a c-myc antibody from Upstate) there is a dephosphorylation of Src and fyn at position Y418. This dephosphorylation is reversed by sodium orthovanadate. A pan Src antibody that recognizes total Src and fyn is used as a loading control.

## CN(N=O)c1cc(O)ccc1O [dephostatin]
PTPMEG [1]; NR2B phosphospecific antibody western blot
  Dephosphorylation of NR2B by PTPMEG: reversed
PTPMEG [1]; anti PY418 western blot
  Dephosphorylation of Src kinase (position 418) by PTPMEG: reversed; also recorded: restores phosphorylation

## C[C@H](N)Cc1ccccc1 [d-amphetamine]
mice
  Locomotion (total distance in the open field): significantly increases

## O=C(O)CN1C(=O)c2cccc3cccc1c23 [AGY- 0041763]
PTPMEG [2]
  IC50: 0.56 µM
CD45
  IC50: > 500 µM
PTPB
  IC50: > 500 µM
T Cell
  IC50: > 500 µM

## [Na+].[Na+].[Na+].[O]=[V]([O-])([O-])[O-] [sodium orthovanadate]
PTPMEG [3]
  Dephosphorylation of Src and fyn at position Y418 by PTPMEG: reversed
